In patent US20130023553A1, “PEGYLATED OPIOIDS WITH LOW POTENTIAL FOR ABUSE AND SIDE EFFECTS” (Nektar Therapeutics, priority 2010, published 2013):
Like-named read-outs stand apart in the source and are kept apart here.

Key:
human mu opioid receptor [1] = target: T1, human mu opioid receptor (Homo sapiens, UniProt P35372); test: biochemical; type: binding
T1 construct: expressed in transfected cells; host or cells: CHO cells
Description: Radioligand displacement was measured using scintillation proximity assays (SPA).
Briefly, serial dilutions of the test compounds were placed in a 96-well plate to which were added SPA beads, membrane and radioligand. The assay conditions for each opioid receptor subtype are described in Table 10 below. The plates were incubated for 8 hours-overnight at room temperature, spun at 1000 rpm to pellet the SPA beads, and radioactivity was measured using the TopCount® microplate Scintillation counter. Specific binding at each concentration of test compound was calculated by subtracting the non-specific binding measured in the presence of excess cold ligand. IC50 values were obtained by non-linear regression of specific binding versus concentration curves and Ki values were calculated using Kd values that were experimentally pre-determined for each lot of membrane preparations.

human mu opioid receptor [2] = target: T1, human mu opioid receptor; test: cell-based; details: for Emax: read-out: % max effect, mu opioid receptor
Description: Studies were conducted in CHO cells heterologously expressing the cloned human mu, kappa or delta opioid receptors. cAMP was measured using a cAMP HiRange homogenous time-resolved fluorescence assay (HTRF Assay), that is based on a competitive immunoassay principle (Cisbio, Cat.#62AM6PEC).
Briefly, suspensions of cells expressing either the mu, kappa or delta opioid receptors were prepared in buffer containing 0.5 mM isobutyl-methyl xanthine (IBMX). […] EC50 values were calculated for each compound from a sigmoidal dose-response plot of concentrations versus maximum response. To determine if the compounds behaved as full or partial agonists in the system, the maximal response at the highest tested concentrations of compounds were compared to that produced by a known full agonist.

[3] = Pharmacokinetics following intravenous (IV) dosing; type: in vivo, Sprague-Dawley rats; details: for AUC / AUC(0-inf) / MRT last / clearance / Cmax / half-life / Vd: male, Sprague-Dawley, rat, plasma; for Cmax: read-out: Cmax; for Vd: read-out: Vss
Source text: (§1) There were 3 rats/group. All animals were food fasted overnight. […] The predose sample was collected from the JVC.
(§2) Following the last collection point, the animals were euthanized.

[4] = Pharmacokinetics following oral (PO) dosing; type: in vivo, Sprague-Dawley rats; details: male, Sprague-Dawley, rat, plasma, po, 5 mg/kg; for Cmax: read-out: Cmax; for half-life: read-out: T1/2(2); for Tmax: read-out: Tmax (converted)
Source text: as §1, §2

[5] = CHO-K1 membranes, [3H]DAMGO 6 nM, read-out: Ki, Mu opioid receptor
[6] = maximal response at the highest tested concentration
[7] = read-out: EC50, mu opioid receptor
[8] = hydroxycodone series, 1 mg/kg IV, Mean ± SD

T1 sequence (P35372 whole entry): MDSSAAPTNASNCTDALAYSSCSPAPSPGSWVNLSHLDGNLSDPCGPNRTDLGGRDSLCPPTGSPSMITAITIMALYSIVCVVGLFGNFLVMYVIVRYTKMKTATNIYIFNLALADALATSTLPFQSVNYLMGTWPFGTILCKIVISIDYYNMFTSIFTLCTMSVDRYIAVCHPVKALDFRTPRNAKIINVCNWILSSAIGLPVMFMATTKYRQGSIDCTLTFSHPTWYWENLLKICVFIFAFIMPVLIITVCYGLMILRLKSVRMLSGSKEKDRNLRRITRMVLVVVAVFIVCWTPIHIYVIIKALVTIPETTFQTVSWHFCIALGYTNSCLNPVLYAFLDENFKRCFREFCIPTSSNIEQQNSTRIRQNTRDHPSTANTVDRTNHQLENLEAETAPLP

Compound: COCCOCCOCCOCCOCCOCCOC1C=CC2C3Cc4ccc(O)c5c4C2(CCN3C)C1O5 (stereo not drawn) [α-6-mPEG6-O-morphine]
- Ki (human mu opioid receptor [1]): 0.073 µM
- EC50 (human mu opioid receptor [2]): 0.415 µM
- Emax (human mu opioid receptor [2]): 98%

Compound: COCCOCCOCCOCCOCCOCCOCCOC1C=CC2C3Cc4ccc(OC)c5c4C2(CCN3C)C1O5 (stereo not drawn) [α-6-mPEG7-O-codeine]
- AUC ([3]; iv, 1 mg/kg): 212 ng·h/mL
- AUC(0-inf) ([3]; iv, 1 mg/kg): 228 ng·h/mL
- MRT last ([3]; iv, 1 mg/kg): 0.845 h
- clearance ([3]; iv, 1 mg/kg): 73.1 ± 1.73 mL/min/kg
- Cmax ([3]; iv, 1 mg/kg): 443 ± 43.3 ng/mL
- half-life ([3]; iv, 1 mg/kg, read-out: T1/2(2)): 1.24 ± 0.096 h
- Vd ([3]; iv, 1 mg/kg): 5.2 ± 0.596 L/kg
- AUC [4]: 285 ng·h/mL
- AUC(0-inf) [4]: 267 ng·h/mL
- MRT last [4]: 2.85 h
- bioavailability [4]: 26.9%
- Cmax [4]: 76.6 ± 12.8 ng/mL
- half-life [4]: 1.63 h
- Tmax [4]: 2 h
- Ki (human mu opioid receptor [1]; [5]): 9.96 µM
- Emax (human mu opioid receptor [2]; [6]): 75%
- EC50 (human mu opioid receptor [2]; [7]): 44.7 µM

Compound: COCCOCCOCCOCCOCCOCCOCCOCCOCCOC1C=CC2C3Cc4ccc(O)c5c4C2(CCN3C)C1O5 (stereo not drawn) [α-6-mPEG9-O-Morphine, α-6-mPEG-O9-morphine]
- Ki (human mu opioid receptor [1]; [5]): 0.111 µM
- Emax (human mu opioid receptor [2]; [6]): 87%
- EC50 (human mu opioid receptor [2]; [7]): 1.06 µM

Compound: COCCOCCOCCOCCOCCOC1C=CC2C3Cc4ccc(O)c5c4C2(CCN3C)C1O5 (stereo not drawn) [α-6-mPEG5-O-morphine]
- Ki (human mu opioid receptor [1]): 0.0394 µM
- EC50 (human mu opioid receptor [2]): 0.157 µM
- Emax (human mu opioid receptor [2]): 95%

Compound: COCCOCCOCCOCCOCCOCCOCCOCCOCCOC1C=CC2C3Cc4ccc(OC)c5c4C2(CCN3C)C1O5 (stereo not drawn) [α-6-mPEG9-O-codeine]
- AUC ([3]; iv, 1 mg/kg): 297 ng·h/mL
- AUC(0-inf) ([3]; iv, 1 mg/kg): 347 ng·h/mL
- MRT last ([3]; iv, 1 mg/kg): 0.953 h
- clearance ([3]; iv, 1 mg/kg): 48.6 ± 6.74 mL/min/kg
- Cmax ([3]; iv, 1 mg/kg): 730 ± 68 ng/mL
- half-life ([3]; iv, 1 mg/kg, read-out: T1/2(2)): 1.82 ± 0.03 h
- Vd ([3]; iv, 1 mg/kg): 5.18 ± 0.538 L/kg
- AUC [4]: 122 ng·h/mL
- AUC(0-inf) [4]: 114 ng·h/mL
- MRT last [4]: 2.98 h
- bioavailability [4]: 8.22%
- Cmax [4]: 31.5 ± 8.43 ng/mL
- half-life [4]: 2.38 h
- Tmax [4]: 0.25 h
- Ki (human mu opioid receptor [1]; [5]): 9.98 µM
- Emax (human mu opioid receptor [2]; [6]): 80%
- EC50 (human mu opioid receptor [2]; [7]): 48.2 µM

Compound: COCCOCCOC1C=CC2C3Cc4ccc(O)c5c4C2(CCN3C)C1O5 (stereo not drawn) [α-6-mPEG2-O-morphine]
- Ki (human mu opioid receptor [1]): 0.022 µM
- EC50 (human mu opioid receptor [2]): 0.0933 µM
- Emax (human mu opioid receptor [2]): 91%

Compound: COCCOCCOCCOCCOCCOCCOCCOCCOCCOC1CCC2(O)C3Cc4ccc(OC)c5c4C2(CCN3C)C1O5 (stereo not drawn) [α-6-mPEG9-O-hydroxycodone, α-6-mPEG9-O-oxycodone]
- mean t1/2 value, times that of the parent compound ([3]; 1 mg/kg IV): 3 times
- AUC [3, 8]: 277 ng·h/mL
- AUC(0-inf) [3, 8]: 350 ng·h/mL
- MRT last [3, 8]: 0.878 h
- clearance [3, 8]: 48.9 ± 9.41 mL/min/kg
- Cmax [3, 8]: 955 ± 149 ng/mL
- half-life ([3]; hydroxycodone series, 1 mg/kg IV, Mean ± SD, read-out: T1/2(z)): 2.38 ± 0.238 h
- Vd [3, 8]: 6.35 ± 0.349 L/kg
- Emax (human mu opioid receptor [2]; [6]): 95%

Compound: COCCOCCOCCOCCOC1C=CC2C3Cc4ccc(O)c5c4C2(CCN3C)C1O5 (stereo not drawn) [α-6-mPEG4-O-morphine]
- Ki (human mu opioid receptor [1]): 0.0231 µM
- EC50 (human mu opioid receptor [2]): 0.128 µM
- Emax (human mu opioid receptor [2]): 100%
